In PubChem BioAssay (NCI):
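Step 1: Grow cells in 96-well plates. Step 2: Expose to compound for 48 hours at 5 concentrations. Step 3: Interpolate endpoints linearly; if unreached, use highest concentration. The concentration for 50% growth inhibition is given as GI50. TGI: total growth inhibition.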

How the values were obtained:
Test in all cases: DTP human tumour cell line panel, 48 h
[1] = system: HT29 colon
[2] = system: A498 renal
[3] = system: MALME-3M melanoma
[4] = system: SNB-75 CNS
[5] = system: SK-MEL-2 melanoma
[6] = system: SK-OV-3 ovarian
[7] = system: UACC-257 melanoma
[8] = system: MDA-MB-231 breast
[9] = system: HCT-15 colon
[10] = system: 786-0 renal

SMILES	TGI [1] [µM]	TGI [2] [µM]	TGI [3] [µM]	TGI [4] [µM]	TGI [5] [µM]	TGI [6] [µM]	TGI [7] [µM]	TGI [8] [µM]	TGI [9] [µM]	TGI [10] [µM]	GI50 [1] [µM]	GI50 [2] [µM]	GI50 [3] [µM]	GI50 [4] [µM]	GI50 [5] [µM]	GI50 [6] [µM]	GI50 [7] [µM]	GI50 [8] [µM]	GI50 [9] [µM]
CCC(C)C(=O)OC1CC2(C)C(c3ccoc3)OC(=O)CC23OC2(C)OC34C(OC(=O)C(C)C)C3(O)C(OC(=O)C5(C)OC5C)C5(C)CC3(O)C(C)(C5CC(=O)OC)C14O2 (configuration not stated)	> 100	> 100	> 100	> 100	> 100	> 100	> 100	> 100	> 100	> 100	–	–	–	–	–	–	–	–	–
COC(=O)Cc1c([C@H]2[C@H](CC(=O)OC)c3ccccc3N2C(C)=O)[nH]c2ccccc12	> 100	> 100	> 100	> 100	> 100	> 100	> 100	> 100	> 100	> 100	–	–	–	–	–	–	–	–	–
CC(=O)OCC(OC(C)=O)C1C[C@H]2O[C@@H]3[C@H](C[C@H]2O1)O[C@@]1(C[C@@H]3C)C[C@H](C)[C@@H]2O[C@]3(C[C@@H]2O1)C[C@H]1O[C@H]2[C@H](C)[C@H]4OC(=O)CC5CC[C@H]6OC7[C@H]8O[C@]9(CC[C@H]%10CC(O)(CO)[C@H](CC[C@H]%11C[C@@H](C)C(O)(CO)C(C[C@@H]4O[C@H]2C[C@H]1O3)O%11)O%10)CC8O[C@@H]7[C@@H](O9)[C@H]6O5 (some centres not stated)	–	> 1	> 1	> 1	> 1	> 1	> 1	> 1	–	> 1	–	–	–	–	–	–	–	–	–
c1ccc2c3c(c(N4CCOCC4)nc2c1)CCCC3	> 100	81.6	> 100	83.1	> 100	> 100	> 100	> 100	> 100	92.9	–	–	–	–	–	–	–	–	–
COCC1OC(N2C(=O)NC(=O)[C@@H]3C=C4CCCCC4=C[C@@H]32)C(OC)C1OC (some centres not stated)	> 100	> 100	> 100	> 100	> 100	> 100	> 100	> 100	> 100	> 100	–	–	–	–	–	–	–	–	–
CCCCc1ccc(Nc2nc3c(ncn3COCCO)c(=O)[nH]2)cc1	> 100	> 100	> 100	> 100	> 100	> 100	> 100	> 100	> 100	> 100	–	–	–	–	–	–	–	–	–
O=C(Nc1ccccc1C(=O)NCCCO)/C(=C/c1ccccc1O)NC(=O)c1ccccc1	> 100	> 100	> 100	> 83.9	> 100	> 100	> 100	> 59.3	> 100	> 89.9	–	–	–	–	–	–	–	–	–
FC(F)(F)c1ccc2nc3n(c2c1)C(c1c(Cl)cccc1Cl)SC3 (configuration not stated)	30.4	34.8	29.9	25.8	42.3	27.9	29.3	37.7	29.6	28.4	–	–	–	–	–	–	–	–	–
CCC(=O)Oc1c2ccsc2c(OC(=O)CC)c2ccsc12	5.56	15	0.14	0.341	1.39	15.8	0.333	1.27	1.07	4.33	–	–	–	–	–	–	–	–	–
Cc1cc2ncc3c(=O)n(NS(=O)(=O)c4ccc(N)cc4)ccc3n2n1	> 100	> 100	> 100	> 100	> 100	> 100	> 100	> 100	> 100	> 100	–	–	–	–	–	–	–	–	–
COc1ccc2c(c1)CC1=C(O2)c2ccc(OC)cc2OC1	72.9	> 100	45.5	66.3	81.6	> 100	37.8	89.6	36.8	50.8	–	–	–	–	–	–	–	–	–
COCc1nc2c(OC)cc(-c3nc4ccc(N5CCN(C)CC5)cc4[nH]3)c(OC)c2[nH]1	> 100	> 100	31.6	> 100	76.3	> 100	34.6	> 100	> 100	> 100	–	–	–	–	–	–	–	–	–
O=c1oc2cc(O)ccc2c(O)c1C(c1ccc(C(c2c(O)c3ccc(O)cc3oc2=O)c2c(O)c3ccc(O)cc3oc2=O)cc1)c1c(O)c2ccc(O)cc2oc1=O	> 100	> 100	> 100	> 100	> 100	> 100	> 100	> 100	> 100	–	–	–	–	–	–	–	–	–	–
Brc1ccc2c(-c3csc(-c4c[nH]c5ccc(Br)cc45)n3)c[nH]c2c1	3.35	8.42	19.3	24.9	18.8	24.2	23.1	> 24.6	14.5	4.71	–	–	–	–	–	–	–	–	–
Cc1c2ncccc2cc2oc3ccccc3c(=O)c12	> 100	> 100	> 100	> 100	> 100	> 100	> 100	> 100	> 100	> 100	–	–	–	–	–	–	–	–	–
N#Cc1c(-c2ccc(F)cc2)nc(N/N=C/c2c[nH]c3ccccc23)nc1N1CCOCC1	22.6	11.5	4.76	38.4	17.7	38.9	4.87	56.4	4.56	–	1.11	1.33	2.75	3.45	3.5	8.61	2.2	5.16	0.784
CSc1nc2c(c(=O)n1C)N=C(c1ccccc1)[C@H](C(CC(=O)c1ccccc1)c1ccccc1)C(c1ccccc1)N2 (some centres not stated)	> 100	> 100	> 100	> 100	> 100	–	> 100	> 100	> 100	> 100	–	–	–	–	–	–	–	–	–
Cc1nc(C)c(Cc2ccccc2)o1	> 100	> 100	> 100	> 100	–	> 100	> 100	> 100	> 100	> 100	–	–	–	–	–	–	–	–	–
Cn1c([O-])nc(-n2cc[n+](C)c2)cc1=O	> 100	> 100	> 100	–	> 100	> 100	> 100	> 100	> 100	> 100	–	–	–	–	–	–	–	–	–
